{"source": "paper PMC8342488", "about": "“Characterization of a triad of genes in cyanophage S-2L sufficient to replace adenine by 2-aminoadenine in bacterial DNA” (Nature Communications, 2021)", "key": {"[1]": {"target": "T1, S-2L PurZ (Cyanophage S-2L, UniProt A0A7U3TBV6)", "T1 construct": "E. coli codon-optimized synthetic gene, N-terminal 14-His tag removed by TEV, expressed in E. coli; dimer", "experiment": "HPLC product analysis", "assay_type": "biochemical", "settings": "dGMP, 10 mM aspartate, 5 mM MgSO4, pH 7.5, 37 °C"}, "[2]": {"target": "T2, S-2L MazZ (Cyanophage S-2L, UniProt A0A7U3TBV3)", "T2 construct": "gene S2L_23; E. coli codon-optimized synthetic gene, N-terminal 14-His tag removed by TEV, expressed in E. coli; homotetramer", "experiment": "HPLC product analysis", "assay_type": "biochemical", "settings": "100 uM nucleotide, 5 mM MgCl2, pH 7.5, 37 °C"}, "[3]": {"target": "T1, S-2L PurZ", "experiment": "X-ray crystal structure, […] Å", "assay_type": "binding", "settings": "co-crystallised with dGMP, soaked with dATP; pH 7"}, "[4]": {"target": "T2, S-2L MazZ", "experiment": "X-ray crystal structure, […] Å", "assay_type": "binding", "settings": "crystallised with dGTP; dephosphorylation product dGDP; three Mn2+ ions; pH 8.5"}, "[5]": {"target": "S-2L MazZ (MazG-like (d)GTP-specific nucleotide diphosphohydrolase of cyanophage S-2L) (cyanophage S-2L)", "experiment": "crystal structure; S-2L MazZ with the dGTP dephosphorylation product (dGDP) and Mn2+, 1.43 Å; crystals grown at 18 °C in 200 mM Li2SO4, 1.26 M (NH4)2SO4, 100 mM Tris pH 8.5; tetramer in the asymmetric unit"}, "[6]": {"target": "the molecule itself", "experiment": "crystal structure; S-2L PurZ with dGMP and dATP, 1.7 Å; crystals grown at 4 °C in 15% Tacsimate, 2% PEG 3350, 100 mM HEPES pH 7; dimer reconstructed through crystallographic symmetry"}}, "data": [{"molecule": "Nc1ncnc2c1ncn2[C@@H]1O[C@H](COP(=O)(O)OP(=O)(O)OP(=O)(O)O)[C@@H](O)[C@H]1O", "note": "[ATP]", "values": [{"measurement": "HPLC product analysis", "setting": "[1]; 2 mM nucleotides", "result": "it can act as a dATPase, but stays functional after dATP pool depletion by using ATP"}]}, {"molecule": "Nc1nc2c(ncn2[C@@H]2O[C@H](COP(=O)(O)OP(=O)(O)OP(=O)(O)O)[C@@H](O)[C@H]2O)c(=O)[nH]1", "note": "[GTP]", "values": [{"measurement": "HPLC product analysis", "setting": "[2]", "result": "Its preferential substrates, dGTP and GTP, are rapidly dephosphorylated to dGMP and GMP"}]}, {"molecule": "N[C@@H](CC(=O)O)C(=O)O", "note": "[aspartic acid]", "values": [{"measurement": "HPLC product analysis", "setting": "[1]; dATP/ATP", "result": "reaction catalyzed by PurZ in presence of dGMP, Asp and dATP/ATP"}]}, {"molecule": "Nc1ncnc2c1ncn2[C@H]1C[C@H](O)[C@@H](COP(=O)(O)OP(=O)(O)OP(=O)(O)O)O1", "note": "[dATP]", "values": [{"measurement": "X-ray crystal structure, 1.7 Å", "setting": "[3]", "result": "We crystallized S-2L PurZ with two of its substrates, dGMP and dATP"}]}, {"molecule": "Nc1nc2c(ncn2[C@H]2C[C@H](O)[C@@H](COP(=O)(O)OP(=O)(O)O)O2)c(=O)[nH]1", "note": "[dGDP]", "values": [{"measurement": "X-ray crystal structure, 1.43 Å", "setting": "[4]", "result": "The dGDP intermediate observed in crystallo is almost completely buried inside the enzyme"}]}, {"molecule": "Nc1nc2c(ncn2[C@H]2C[C@H](O)[C@@H](COP(=O)(O)O)O2)c(=O)[nH]1", "note": "[dGMP]", "values": [{"measurement": "X-ray crystal structure, 1.7 Å", "setting": "[3]", "result": "We crystallized S-2L PurZ with two of its substrates, dGMP and dATP"}]}, {"molecule": "Nc1nc2c(ncn2[C@H]2C[C@H](O)[C@@H](COP(=O)(O)OP(=O)(O)OP(=O)(O)O)O2)c(=O)[nH]1", "note": "[dGTP]", "values": [{"measurement": "HPLC product analysis", "setting": "[2]", "result": "Its preferential substrates, dGTP and GTP, are rapidly dephosphorylated to dGMP and GMP"}]}, {"molecule": "S-2L MazZ (MazG-like (d)GTP-specific nucleotide diphosphohydrolase of cyanophage S-2L) (enzyme)", "values": [{"measurement": "stoichiometry N", "setting": "[5]", "result": 4}]}, {"molecule": "S-2L PurZ (homologue of adenylosuccinate synthetase of cyanophage S-2L) (enzyme, PurZ of cyanophage S-2L, product of the gene purZ; synthetic gene optimised for E. coli; Crystallised with dGMP and soaked with dATP; The dimer is made by crystallographic symmetry; source: E. coli BL21-CodonPlus (DE3)-RIPL, purified (Ni-NTA, TEV cleavage, Superdex 200); not shown: His14, N-terminal, cleaved) MLSIPPYYRVKNCNLIVDCQYGSTGKGLLAGYLGALEAPQVLCMAPSPNAGHTLVEEDGTARVHKMLPLGITSPSLERIYLGPGSVIDMDRLLEEYLALPRQVELWVHQNAAVVLQEHRDEEAAGGLAPGSTRSGAGSAFIAKIRRRPGTLLFGEAVRDHPLHGVVRVVDTRTAQDMLFRTRSIQAEGCQGYSLSVHHGAYPYCTARDVTTAQLIADCGLPYDVARIARVVGSMRTYPIRVANRPEAGEWSGPCYPDSVECQFADLGLEQEYTTVTKLPRRIFTFSAIQAHEAIAQNGVDEVFLNFAQYPPSLGALEDILDAIEARAEVTYVGFGPKVTDVYHTPTRAELEGLYARYRR", "values": [{"measurement": "stoichiometry N", "setting": "[6]", "result": 2}]}]}
